In patent publication US6541002B1, “Compositions and methods for providing a protein to a virion” (Thomas Jefferson University, priority 1998, dated 2003):
No end group written: not given here.

Target: HIV-1 Vpr (Human immunodeficiency virus type 1 group M subtype B, UniProt P12520)
Details: heptapeptide fused to Gal4AD, co-expressed with Vpr-Gal4 DNA-binding domain chimera
From the text: DNA fragments encoding the variable heptapeptide region of the coat protein of individual phage isoforms selected from the library described herein were amplified using PCR from purified phage DNA. Amplified peptide-encoding DNA was cloned in frame between the EcoRI and BglII restriction endonuclease sites of pGADGH for use in yeast two-hybrid system experiments.
The yeast reporter strain, HF7c, which comprises two Gal4-inducible reporter genes, namely HIS3 and LacZ, has been described (BouHamdan et al., 1996, J. Virol. 70:697-704). HF7c cells were transformed with two plasmids, pGB-UDG and pGA-Vpr, using known methods to yield double transformant HF7c cells. […] Cells obtained from these plates were used in a liquid culture assay with yeast reporter strain SFY526 to detect beta-galactosidase activity, as described (BouHamdan et al., 1996, J. Virol. 70:697-704; Bartel et al., 1993, Biotech. 14:920-924). […] was used as the substrate in the assay, and each assay was performed in triplicate.
Intracellular interaction of ten of the heptapeptide regions listed in Table 2 with HIV-1 Vpr was further tested using the yeast two-hybrid system.

| Substance | ability of double transformant HF7c cells to grow on histidine-deficient medium |
| --- | --- |
| GHTWWTF [Pep#7] | better able to grow on histidine-deficient medium than the other double transformants tested |
| KPKWAIV [Pep#2] | unable to grow on histidine-deficient medium |
| KPMWWHF [Pep#9] | better able to grow on histidine-deficient medium than the other double transformants tested |
| LPPWAAF [Pep#6] | better able to grow on histidine-deficient medium than the other double transformants tested |
| SAPWWTF [Pep#5] | better able to grow on histidine-deficient medium than those which expressed chimeric proteins having an amino acid sequence identified in Table 2 as Pep#1 (SEQ ID NO: 16), Pep#8 (SEQ ID NO: 17), or Pep#10 (SEQ ID NO: 18) |
| SWWSFTP [Pep#1] | able to grow on histidine-deficient medium |
| TTWWWQF [Pep#4] | better able to grow on histidine-deficient medium than those which expressed chimeric proteins having an amino acid sequence identified in Table 2 as Pep#1 (SEQ ID NO: 16), Pep#8 (SEQ ID NO: 17), or Pep#10 (SEQ ID NO: 18) |
| WHDFPLV [Pep#3] | better able to grow on histidine-deficient medium than the other double transformants tested |
| WHSFPDS [Pep#10] | able to grow on histidine-deficient medium |
| WHSFPPP [Pep#8] | able to grow on histidine-deficient medium |
